Assay results from patent US11795135B2, “Prostacyclin compounds, compositions and methods of use thereof” (Insmed Incorporated, priority 2013, dated 2023).
Entries after “also recorded” stand apart in the source; their conditions may differ. Like-named read-outs stand apart in the source and are kept apart here.

How the values were obtained:
esterase = test: Esterase mediated conversion of treprostinil compounds to treprostinil; assay type: in vitro ADME; conditions: incubation with esterase at 37° C., 1 hour (FIG. 28, 30)
Experimental: A set of studies was conducted to determine the conversion kinetics to treprostinil of linear treprostinil compounds versus various branched treprostinil compounds. 0.4 mM of linear C8-TR or branched treprostinil compounds 2-dimethyl-1-propanyl-TR, 3,3-dimethyl-1-butanyl-TR, 2-ethyl-1-butanyl-TR, 5-nonanyl-TR, or 3-pentanyl-TR (see below for structures) were incubated with 0.2 U esterase at 37° C. for 1 hour, and the conversion (% of total) was calculated at 0.25, 0.5, 0.75, or 1 hour incubation time. • C8-TR (i.e., the compound of Formula (A) wherein
The conversion is relative to the C8-TR compound and conversion was measured at 1 hr. post esterase incubation. • C8-TR (i.e., the compound of Formula (A) wherein
Conversion was measured at 1 hr. post esterase incubation. • 4C7-TR (i.e., the compound of Formula (A) wherein

EP2 prostanoid receptor = target: T1, EP2 prostanoid receptor (Homo sapiens, UniProt P43116); test: GloSensor cAMP assay in CHO-K1 cells co-transfected with the EP2 receptor; assay type: cell-based; conditions: for ranking of activity of the treprostinil compounds: kinetic profile, 10 μM and 5 μM, FIG. 21
T1 construct: host or cells: CHO-K1
Description: cAMP is a second messenger involved in signal transduction of G-protein coupled receptors (GPCRs) acting through Gα-s and Gα-i proteins. Because the treprostinil receptor is a GPCR, the assay provides an indication of whether the respective prostacyclin compound (or metabolite thereof) binds its receptor and activates the GPCR cell signaling cascade. The GloSensorTM assay harnesses a genetically modified form of firefly luciferase into which a cAMP-binding protein moiety has been inserted. Upon binding of cAMP, a conformational change is induced leading to increased light output. The EP2 prostanoid receptor was co-transfected with the GloSensorTM plasmid (Promega) into CHO-K1 cells as follows. CHO-K1 cells were harvested when the monoloayer was at 50-90% confluence. First, cells were washed with 5 mL PBS. […] The media was aspirated, and the cell pellet was resuspended in 10 mL of growth media. Cell number was determined using a hemacytometer. Each well of a culture treated 96 well flat bottom plate (Costar, Cat #: 3917) was seeded with 1×10^4 cells per 100 μL antibiotic-free growth media. […] For small scale transfections of up to 20 wells, the pGLoSensor-22F cAMP plasmid (Promega, Cat #: E2301) (2 μg): (EP2) (10 ng) (Origene, Cat #: SC126558):pGEM-3Zf(+) (10 ng) (Promega, Cat #: P2271) ratio was diluted to a final concentration of 12.6 ng/μL (total plasmid) in Opti-MEM I reduced-serum medium (Life Technologies, Cat #: 1985062). Next, 6 μL of FuGENE HD transfection reagent (Promega, Cat #: E2311) was added to 160 μL of diluted plasmid and mixed carefully by gentle pipetting. The complex was incubated at room temperature for 0 to 10 minutes, and then 8 μL of the complex was added per well of a 96 well white assay plate (Costar, Cat #: 3917) and gently mixed without disturbing the cell monolayer. […] Following incubation, cells were treated and analyzed. For larger scale transfections, the aforementioned steps were scaled up accordingly, and cells were frozen following the last incubation. In order to prepare frozen transfected CHO-K1 cells, the media was aspirated from culture flasks and cells were rinsed with 5 mL PBS. […] Cell number was determined using a hemacytometer. The media was aspirated, and the cell pellet was resuspended in freezing media (Millipore, cat #: S-002-5F) at 2.5×10^6 cells/vial. Transfected cells were incubated overnight at -80° C. before transfer to liquid nitrogen for long term storage. […] In preparation for cAMP measurement, the cells were equilibrated with the GloSensor cAMP reagent prior to treatment. For equilibration, the medium was carefully removed from the individual well. Next, 100 μL of equilibration medium ([…] of Glosensor Reagent stock solution (Promega, Cat #: E291), 10% FBS (Hyclone, Cat #: SH30071.03) and 88% CO2 independent medium (Life Technologies, Cat #: 18045088)) was added per well of the 96-well plate, and added to the side of each well. The plate was then incubated for 2 hours at room temperature. A first pre-read measurement was taken using a microplate reader (MicroLumat Plus). Plates were incubated for an additional 10 minutes at room temperature, followed by a second pre-read measurement. […] Following treatment, each plate was read every 5 minutes for the duration of the assay using a microplate reader (MicroLumat Plus). In order to determine the fold change in cAMP relative to the control, the transfection efficiency was first determined by dividing the second pre-read measurement by the average of the corresponding pre-read measurements. Next, the normalized relative light units (RLUs) of the samples were determined by dividing the plate read measurement by the transfection efficiency. The fold change in cAMP relative to the control was then determined by dividing the normalized RLU of the samples by the normalized RLU of the control. The cAMP assay was validated using free treprostinil. […] Luminescence was then measured at room temperature. […]

[1] = test system: Rat alveolar NR8383 cells; test: NR8383 cell proliferation assay (Presto Blue); assay type: cell-based
Experimental: Rat alveolar NR8383 cells were harvested when the monolayer was 50-90% confluent (use passage 5-11). Because the NR8383 cells include both adherent and non-adherent cells, media was transferred to a 50 mL Falcon tube. To obtain the cells remaining in the flask, 2 mL of plain media was added, and the remaining cells were scraped out of the 75 cm^2 flask with a cell scraper and added to the 50 mL tube. […] SH30071.03)+1×Pen-Strep (Life Technologies, cat #: 15410-122)). Cell number was determined using a hemacytometer. […] Measurements and calculations were made as described above for the CHO-K1 cells.

CHO-K1 cells = test: CHO-K1 cell proliferation assay (Presto Blue)
Experimental: CHO-K1 cells were harvested when the cell monolayer was 50-90% confluent (use passage 4-11). Media was aspirated out of the flask, and cells were rinsed with 2 mL of F12 media. Next, 1 mL of pre-warmed (37° C.) 0.25% trypsin-EDTA (Life Technologies, Cat #: 25300054) was added, and cells were dislodged from the flask by tapping it on the side. Complete growth media (F12 (Life Technologies, Cat #: 31765092)+10% FBS (Hyclone, Cat #: SH30071.03)+1× Pen-Strep (Life Technologies, cat #15140-122) was then added at a volume of 10 mL. Cells were centrifuged at 250×g for 5 minutes at room temperature, and the media was aspirated. The cell pellet was resuspended in 10 mL complete growth media. Cell number was determined using a hemacytometer. Cells were then seeded at 2000 cells per well of a 96-well plate in 100 μL of complete growth media. The plate was incubated overnight at 37° C. and 5% CO2 in a water-jacketed incubator.
The next day, 80 μL of fresh complete media was added to each well, and CHO-K1 cells were challenged with treprostinil compound and composition treatments. The working solutions were prepared at 10× concentration, and following 2 fold serial dilutions, 20 μL aliquots were added per well to arrive at a final 1× concentration. Following a 48 hour incubation at 37° C. and 5% CO2 in a water-jacketed incubator, the inhibitory effect on cell proliferation was determined. Plates were analyzed using 20 μL of Presto Blue reagent (Life Technologies, cat #: A13262) per well. The reagent was mixed, and plates were incubated for 1 hour at 37° C. and 5% CO2 in a water-jacketed incubator. Plates were read using either a CytoFluor Series 4000 (PerSeptive BioSystems) or Synergy Neo microplate reader (BioTek) with emission λ: 590 nm and excitation λ: 560 nm.
at concentrations ranging from 0.55 μM to 125 μM. Following a 48 hour incubation period, the inhibitory effect of the treprostinil derivative compositions on cell proliferation was determined.
C2, C3, C4, C5, C6, C8, C10 or Cu straight chain alkyl, at dosages ranging from 0.098 μM to 25 μM. Following a 48 hour incubation period, the inhibitory effect on cell proliferation was determined.
Following a 72 hour incubation period, the inhibitory effect on cell proliferation was determined. Following a 48 hour incubation period, the inhibitory effect on cell proliferation was determined.
Similarly, CHO-K1 cells were challenged with the treprostinil compositions T612 (R2=C2), T613 (R2=C8) at concentrations ranging from 1.41 μM to 180 μM.

[2] = Treprostinil alkyl ester conversion to treprostinil in rat lung tissue homogenate; assay type: in vitro ADME; conditions: 37° C., 200 nM, 4 hours, 10 mg/mL of protein
Experimental: Treprostinil alkyl ester conversion to treprostinil was also measured in the presence of rat, dog and monkey lung tissue homogenate at 37° C. Here, data were calculated based on fit of exponential increase to the maximum (experiments performed in duplicate). The results of this study are provided below in Table 2A and FIG. 37. […] Both FIG. 37 experiments (left and right graphs) were performed in duplicate and the lines represent nonlinear exponential regression assuming 1 phase decay.

[3] = Particle size characterization of treprostinil compositions (QELS); assay type: physicochemical; conditions: particles of compositions comprising the alkyl ester, FIG. 2
Experimental: All particle size measurements were performed using a Wyatt Technology Mobius™ Zeta Potential/Particle Sizing Instrument in Quasi-elastic light scattering (QELS) mode. Composition aliquots were diluted 10-fold in pre-filtered (0.02 μm pore filter) ultrapure of deionized H2O. Light scattering data was collected and converted into particle size and size distribution using Dynamics® v. […] Reported average particle size diameter is based on the cumulants model, which mathematically fits particle diffusion constants (determined by the raw scattering intensities of particles in a suspension) to obtain the particle size mean and a distribution of particle sizes around the mean diameter.
Particle uniformity was determined using the software-calculated polydispersity (% PD). Polydispersity is defined as the standard deviation of the particle size distribution from the mean particle size value. % PD normalizes the polydispersity to the mean diameter by dividing by the mean size and multiplying by 100. These parameters indicate whether a particle suspension has one or more size populations of particles (monomodal versus multimodal). […]
Dynamics® polydispersity parameter represents a monodisperse population of particles if % PD≤15. A calculated % PD≥57% represents a polydisperse population of particles.

[4] = unformulated alkyl esters, 72 hour incubation
[5] = unformulated alkyl esters, 48 hour incubation

T1 sequence (P43116 whole entry): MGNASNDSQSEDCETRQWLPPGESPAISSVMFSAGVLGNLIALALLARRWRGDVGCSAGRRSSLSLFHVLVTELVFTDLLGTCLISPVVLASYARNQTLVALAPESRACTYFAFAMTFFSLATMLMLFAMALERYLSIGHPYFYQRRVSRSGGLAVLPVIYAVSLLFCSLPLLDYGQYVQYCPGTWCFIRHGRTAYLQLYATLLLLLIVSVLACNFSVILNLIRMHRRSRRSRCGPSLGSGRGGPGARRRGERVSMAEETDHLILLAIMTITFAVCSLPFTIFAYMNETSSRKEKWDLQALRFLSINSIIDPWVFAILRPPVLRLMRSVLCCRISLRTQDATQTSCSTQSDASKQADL

Row | Compound | esterase mediated conversion rate to treprostinil (comparison) (esterase) | Effect on cell proliferation, NR8383 Cells (0.195 μM-25 μM) [1, 4] | Effect on cell proliferation, CHO-K1 Cells (0.195 μM-25 μM) (CHO-K1 cells; [5]) | other results
1 | CCCCCC(O)CCC1C(O)CC2Cc3c(cccc3OCC(=O)OC(CCC)CCCC)CC21 (mixture of isomers) [Compound 4C8-TR] | slower conversion rate than the linear compound C8-TR; also recorded: slower conversion rate than the symmetrical compounds (4C7-TR and 5C9-TR) |  |  | 
2 | CCCCCC[C@@H](C)OC(=O)COc1cccc2c1C[C@H]1C[C@@H](O)[C@H](CC[C@@H](O)CCCCC)[C@H]1C2 [(R)-2C8-TR] | no significant difference between the conversion rates of R and S isomers |  |  | 
3 | CCCCCC[C@H](C)OC(=O)COc1cccc2c1C[C@H]1C[C@@H](O)[C@H](CC[C@@H](O)CCCCC)[C@H]1C2 [(S)-2C8-TR] | no significant difference between the conversion rates of R and S isomers |  |  | 
4 | CCCCC[C@H](O)CC[C@@H]1[C@H]2Cc3cccc(OCC(=O)OC(CCC)CCC)c3C[C@H]2C[C@H]1O [Compound 4C7-TR] | slower conversion rate than the linear compound C8-TR |  |  | 
5 | CCCCC[C@H](O)CC[C@@H]1[C@H]2Cc3cccc(OCC(=O)OC(CCCC)CCCC)c3C[C@H]2C[C@H]1O [Compound 5C9-TR, 5-nonanyl-treprostinil] | slower conversion rate than the linear compound C8-TR |  |  | esterase mediated conversion rate to treprostinil (comparison) (esterase; listed as 5-nonanyl-TR): slower conversion rate than linear C8-TR; ranking of activity of the treprostinil compounds (EP2 prostanoid receptor): C12-TR>C14-TR>5-nonanyl-TR>C16-TR
6 | CCCCC[C@H](O)CC[C@@H]1[C@H]2Cc3cccc(OCC(=O)OCC)c3C[C@H]2C[C@H]1O [Compound C2-TR, treprostinil ethyl ester] |  | No detectable cell inhibition | No detectable cell inhibition | 
7 | CCCCC[C@H](O)CC[C@@H]1[C@H]2Cc3cccc(OCC(=O)OCCC)c3C[C@H]2C[C@H]1O [Compound C3-TR] |  | No detectable cell inhibition | No detectable cell inhibition | 
8 | CCCCC[C@H](O)CC[C@@H]1[C@H]2Cc3cccc(OCC(=O)OCCCC)c3C[C@H]2C[C@H]1O [Compound C4-TR] |  | No detectable cell inhibition | No detectable cell inhibition | 
9 | CCCCCCOC(=O)COc1cccc2c1C[C@H]1C[C@@H](O)[C@H](CC[C@@H](O)CCCCC)[C@H]1C2 [Compound C6-TR] |  | No detectable cell inhibition | No detectable cell inhibition | 
10 | CCCCCCCCCCCCCCOC(=O)COc1cccc2c1C[C@H]1C[C@@H](O)[C@H](CC[C@@H](O)CCCCC)[C@H]1C2 [Compound C14-TR, tetradecyl-treprostinil] |  |  |  | ranking of activity of the treprostinil compounds (EP2 prostanoid receptor): C12-TR>C14-TR>5-nonanyl-TR>C16-TR; Rate of treprostinil alkyl ester conversion [2]: 0.4 nmOL/h * g of protein; polydispersity (% PD) [3]: around 15%
11 | treprostinil decyl ester [Compound C10-TR] |  |  |  | duration of cAMP levels compared with free treprostinil and the C6, C8, and C12 derivatives (EP2 prostanoid receptor; 5 μM, FIG. 4 and FIG. 5): sustained significantly longer; cAMP levels compared with free treprostinil (EP2 prostanoid receptor; 10 μM, composition, FIG. 3A): equivalent to free treprostinil; cAMP levels sustained for (EP2 prostanoid receptor; 10 μM, composition, FIG. 3A): at least 6 hours; cAMP response compared with the response induced by free treprostinil (EP2 prostanoid receptor; compositions, 5 μM, FIG. 4): greater than or equivalent to the response induced by free treprostinil; cAMP response level (EP2 prostanoid receptor; unformulated compounds, 5 μM, FIG. 5): equivalent to free treprostinil; Effect on cell proliferation, NR8383 Cells (0.195 μM-25 μM) [1]: No detectable cell inhibition; polydispersity (% PD) [3]: around 15%; Effect on cell proliferation, CHO-K1 Cells (0.195 μM-25 μM) (CHO-K1 cells): No detectable cell inhibition
